Values quoted from earlier work as cited in article PMC10386743, “Application of Ligand- and Structure-Based Prediction Models for the Design of Alkylhydrazide-Based HDAC3 Inhibitors as Novel Anti-Cancer Compounds” (Pharmaceuticals, 2023).

System: HDAC3
Conditions: for activity on HDAC3 (in words): experimentally determined; for pIC50 HDAC3 (HDAC3 experimental pIC50): newly designed compounds

Structure (SMILES)	activity on HDAC3 (in words)	pIC50 HDAC3 (HDAC3 experimental pIC50)	HDAC3 inhibition @1 µM	HDAC3 inhibition @10uM
CCCCCCNNC(=O)c1cccc(NCc2ccccc2)c1 [Compound 70]	did not show significant activity	<5.00		
CCCNNC(=O)c1cnc(NCCc2ccccc2)nc1 [Compound 74]	did not show significant inhibitory activity		41%@1 µM	87%
CCCCCCNNC(=O)c1cnc(NCCc2ccccc2)nc1 [Compound 82]		<5.00		
CCCNNC(=O)c1ccc(CNC(C)=O)cc1 [Compound 68]	moderate activity	5.80		
CCCNNC(=O)c1cnc(NCc2cccc3ccccc23)nc1 [Compound 75]		7.09		
CCCCCCNNC(=O)c1cnc(N2CCN(Cc3cn(C)c4ccccc34)CC2)nc1 [Compound 87]		6.52		
CCCCNNC(=O)c1ccc(-c2ccc(CNC(C)=O)cc2)cc1 [Compound 65]		6.46		
CCCNNC(=O)c1cnc(N2CCN(C)CC2)nc1 [Compound 79]		6.92		
CCCCCNNC(=O)c1ccc(-c2ccc(CNC(C)=O)cc2)cc1 [Compound 66]		5.82		
CCCCCCNNC(=O)c1ccc(C)c(NCc2ccccc2)c1 [Compound 71]	did not show significant activity		9%@1 µM	42%
CCCCCCNNC(=O)c1cnc(NCc2ccccc2)nc1 [Compound 83]		5.52		
CCCCNNC(=O)c1cnc(NCc2ccccc2)nc1 [Compound 73]		6.70		
CCCCCCNNC(=O)c1ccc(CNC(C)=O)cc1 [Compound 69]	did not show significant activity	<5.00		
CCCCCCNNC(=O)c1cnc(NCc2ccc(CNC(C)=O)cc2)nc1 [Compound 84]		<5.00		
CCCCCCNNC(=O)c1cnc(N2CCN(CCc3cn(C)c4ccccc34)CC2)nc1 [Compound 89]		5.85		
